# In US10000516B2 (priority 2015, dated 2018):
# Molecular target: T1, Human Factor D (Homo sapiens, UniProt P00746)
# T1 construct: purified from human serum; purchased Complement Technology, Inc; host or cells: human serum (natural protein, not recombinant)
# Assay: Human Factor D assay (Z-L-Lys-SBzl/DTNB, absorbance at 405 nm)
# Assay type: biochemical
# Conditions: not given
# Method: Example 44. Human Factor D Assay
# Human Factor D (purified from human serum, Complement Technology, Inc.) at 80 nM final concentration was incubated with test compound at various concentrations for 5 minutes at room temperature in 50 mM Tris, 1M NaCl, pH 7.5. A synthetic substrate Z-L-Lys-SBzl and DTNB (Ellman's reagent) are added to final concentrations of 100 µM each. Absorbance at 405 nm (A405) was recorded at 30 second intervals for 30 minutes using a microplate spectrophotometer. IC50 values are calculated by nonlinear regression of complement Factor D reaction rates as a function of test compound concentration.
# T1 sequence (P00746 26-253): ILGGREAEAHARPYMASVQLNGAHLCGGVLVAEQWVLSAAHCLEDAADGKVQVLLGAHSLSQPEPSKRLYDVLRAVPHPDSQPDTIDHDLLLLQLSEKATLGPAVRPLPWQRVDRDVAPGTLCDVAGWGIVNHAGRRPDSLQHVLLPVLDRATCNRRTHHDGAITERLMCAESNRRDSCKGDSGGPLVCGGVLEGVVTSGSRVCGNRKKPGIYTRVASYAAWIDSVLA
row,Compound,IC50 [µM]
1,"CCCCOP(=O)(OCCCC)c1ccc2c(C(C)=O)cn(CC(=O)N3C[C@H](F)C[C@H]3C(=O)NCc3cccc(Cl)c3F)c2c1 [Compound 20, dibutyl 3-acetyl-1-(2-((2S,4R)-2-(3-chloro-2-fluorobenzylcarbamoyl)-4-fluoropyrrolidin-1-yl)-2-oxoethyl)-1H-indol-6-ylphosphonate]",< 1
2,"O=C(NCc1cccc(Cl)c1F)[C@@H]1C[C@@H](F)CN1C(=O)Cn1cc(C(=O)C(F)(F)F)c2ccc(P(=O)(O)O)cc21 [Compound 32, 1-(2-((2S,4R)-2-(3-chloro-2-fluorobenzylcarbamoyl)-4-fluoropyrrolidin-1-yl)-2-oxoethyl)-3-(2,2,2-trifluoroacetyl)-1H-indol-6-ylphosphonic acid]",< 1

# Same assay, conditions: Table 1; Human Factor D 80 nM, purified from human serum; substrate Z-L-Lys-SBzl; read-out: IC50
row,Compound,IC50 [µM]
1,"CCOP(=O)(OCC)c1ccc2c(C(C)=O)cn(CC(=O)N3C[C@H](F)C[C@H]3C(=O)NCc3cccc(Cl)c3F)c2c1 [Compound 1, diethyl 3-acetyl-1-(2-((2S,4R)-2-(3-chloro-2-fluorobenzylcarbamoyl)-4-fluoropyrrolidin-1-yl)-2-oxoethyl)-1H-indol-6-ylphosphonate]",< 1
2,"CCOP(=O)(OCC)c1ccc2c(C(N)=O)cn(CC(=O)N3C[C@H](F)C[C@H]3C(=O)NCc3cccc(Cl)c3F)c2c1 [Compound 15, diethyl 3-carbamoyl-1-(2-((2S,4R)-2-(3-chloro-2-fluorobenzylcarbamoyl)-4-fluoropyrrolidin-1-yl)-2-oxoethyl)-1H-indol-6-ylphosphonate]",< 1
3,"CCOP(=O)(OCOC(=O)OC(C)C)c1ccc2c(C(C)=O)cn(CC(=O)N3C[C@H](F)C[C@H]3C(=O)NCc3cccc(Cl)c3F)c2c1 (stereo partly drawn) [Compound 6, ((3-acetyl-1-(2-((2S,4R)-2-(3-chloro-2-fluorobenzylcarbamoyl)-4-fluoropyrrolidin-1-yl)-2-oxoethyl)-1H-indol-6-yl)(ethoxy)phosphoryloxy) methyl isopropyl carbonate]",< 1
4,"CC(=O)c1cn(CC(=O)N2C[C@H](F)C[C@H]2C(=O)NCc2cccc(Cl)c2F)c2cc(P(=O)(OCOC(=O)OC(C)C)OCOC(=O)OC(C)C)ccc12 [Compound 4, ((3-acetyl-1-(2-((2S,4R)-2-(3-chloro-2-fluorobenzylcarbamoyl)-4-fluoropyrrolidin-1-yl)-2-oxoethyl)-1H-indol-6-yl)phosphoryl)bis(oxy) bis(methylene) isopropyl dicarbonate]",< 1
5,"CCOP(=O)(OCC)c1ccc2c(c1)c(C(C)=O)cn2CC(=O)N1C[C@H](F)C[C@H]1C(=O)NCc1cccc(Cl)c1F [Compound 8, diethyl 3-acetyl-1-(2-((2S,4R)-2-(3-chloro-2-fluorobenzylcarbamoyl)-4-fluoropyrrolidin-1-yl)-2-oxoethyl)-1H-indol-5-ylphosphonate]",< 1
6,"CCCCOP(=O)(O)c1ccc2c(C(C)=O)cn(CC(=O)N3C[C@H](F)C[C@H]3C(=O)NCc3cccc(Cl)c3F)c2c1 [Compound 21, butyl hydrogen 3-acetyl-1-(2-((2S,4R)-2-(3-chloro-2-fluorobenzylcarbamoyl)-4-fluoropyrrolidin-1-yl)-2-oxoethyl)-1H-indol-6-ylphosphonate]",< 1
7,"CC(=O)c1cn(CC(=O)N2C[C@H](F)C[C@H]2C(=O)NCc2cccc(Cl)c2F)c2cc(P(=O)(O)OCOC(=O)C(C)(C)C)ccc12 [Compound 28, ((3-acetyl-1-(2-((2S,4R)-2-(3-chloro-2-fluorobenzylcarbamoyl)-4-fluoropyrrolidin-1-yl)-2-oxoethyl)-1H-indol-6-yl)(hydroxy)phosphoryloxy) methyl pivalate]",< 1
8,"CCOP(=O)(OCC)c1ccc2c(C(N)=O)nn(CC(=O)N3C[C@H](F)C[C@H]3C(=O)NCc3cccc(Cl)c3F)c2c1 [Compound 17, diethyl 3-carbamoyl-1-(2-((2S,4R)-2-(3-chloro-2-fluorobenzylcarbamoyl)-4-fluoropyrrolidin-1-yl)-2-oxoethyl)-1H-indazol-6-ylphosphonate]",< 1
9,"CC(=O)c1cn(CC(=O)N2C[C@H](F)C[C@H]2C(=O)NCc2cccc(Cl)c2F)c2cc(P(=O)(O)c3ccccc3)ccc12 [Compound 25, 3-acetyl-1-(2-((2S,4R)-2-(3-chloro-2-fluorobenzylcarbamoyl)-4-fluoropyrrolidin-1-yl)-2-oxoethyl)-1H-indol-6-yl(phenyl)phosphinic acid]",< 1
10,"CC(=O)c1cn(CC(=O)N2C[C@H](F)C[C@H]2C(=O)NCc2cccc(Cl)c2F)c2cc(P(=O)(O)OCC(F)(F)F)ccc12 [Compound 29, 2,2,2-trifluoroethyl hydrogen 3-acetyl-1-(2-((2S,4R)-2-(3-chloro-2-fluorobenzylcarbamoyl)-4-fluoropyrrolidin-1-yl)-2-oxoethyl)-1H-indol-6-ylphosphonate]",< 1
11,"NC(=O)c1cn(CC(=O)N2C[C@H](F)C[C@H]2C(=O)NCc2cccc(Cl)c2F)c2cc(P(=O)(O)O)ccc12 [Compound 16, 3-carbamoyl-1-(2-((2S,4R)-2-(3-chloro-2-fluorobenzylcarbamoyl)-4-fluoropyrrolidin-1-yl)-2-oxoethyl)-1H-indol-6-ylphosphonic acid]",< 1
12,"CCOP(=O)(O)c1ccc2c(C(C)=O)cn(CC(=O)N3C[C@H](F)C[C@H]3C(=O)NCc3cccc(Cl)c3F)c2c1 [Compound 2, ethyl hydrogen 3-acetyl-1-(2-((2S,4R)-2-(3-chloro-2-fluorobenzylcarbamoyl)-4-fluoropyrrolidin-1-yl)-2-oxoethyl)-1H-indol-6-ylphosphonate]",< 1
13,"CCP(=O)(O)c1ccc2c(C(C)=O)cn(CC(=O)N3C[C@H](F)C[C@H]3C(=O)NCc3cccc(Cl)c3F)c2c1 [Compound 27, 3-acetyl-1-(2-((2S,4R)-2-(3-chloro-2-fluorobenzylcarbamoyl)-4-fluoropyrrolidin-1-yl)-2-oxoethyl)-1H-indol-6-yl(ethyl)phosphinic acid]",< 1
14,"COC(=O)c1cn(CC(=O)N2C[C@H](F)C[C@H]2C(=O)NCc2cccc(Cl)c2F)c2cc(P(=O)(O)O)ccc12 [Compound 14, 1-(2-((2S,4R)-2-(3-chloro-2-fluorobenzylcarbamoyl)-4-fluoropyrrolidin-1-yl)-2-oxoethyl)-3-(methoxycarbonyl)-1H-indol-6-ylphosphonic acid]",< 1
15,"CCOP(=O)(OCC)c1cc2c(cc1F)c(C(C)=O)cn2CC(=O)N1C[C@H](F)C[C@H]1C(=O)NCc1cccc(Cl)c1F [Compound 30, diethyl 3-acetyl-1-(2-((2S,4R)-2-(3-chloro-2-fluorobenzylcarbamoyl)-4-fluoropyrrolidin-1-yl)-2-oxoethyl)-5-fluoro-1H-indol-6-ylphosphonate]",< 1
16,"CC(=O)c1cn(CC(=O)N2C[C@H](F)C[C@H]2C(=O)NCc2cccc(Cl)c2F)c2cc(P(=O)(O)O)ccc12 [Compound 3, 3-acctyl-1-(2-((2S,4R)-2-(3-chloro-2-fluorobenzylcarbamoyl)-4-fluoropyrrolidin-1-yl)-2-oxoethyl)-1H-indol-6-ylphosphonic acid]",< 1

# Same assay, conditions: Table 3; Human Factor D 80 nM, purified from human serum; substrate Z-L-Lys-SBzl; read-out: IC50 (Stars)
row,Compound,IC50 [µM]
1,"CCOP(=O)(OCC)c1ccc2c(c1)c(C(C)=O)cn2CC(=O)N1C[C@H](F)C[C@H]1CCNS(=O)(=O)c1ccccc1 [Compound 95, diethyl (3-acetyl-1-(2-((2R,4R)-4-fluoro-2-(2-(phenylsulfonamido)ethyl)pyrrolidin-1-yl)-2-oxoethyl)-1H-indol-5-yl)phosphonate]",> 10
2,"CC(=O)c1cn(CC(=O)N2C[C@H](F)C[C@H]2CCNS(=O)(=O)c2ccccc2)c2ccc(P(=O)(O)O)cc12 [Compound 96, (3-acetyl-1-(2-((2R,4R)-4-fIuoro-2-(2-(phenylsulfonamido)ethyl)pyrrolidin-1-yl)-2-oxoethyl)-1H-indol-5-yl)phosphonic acid]",> 10
3,"CC(=O)c1nn(CC(=O)N2[C@H](C(=O)Nc3cccc(Br)n3)C[C@@]3(C)C[C@@H]23)c2cc(P(=O)(O)O)ccc12 [Compound 106, (3-acetyl-1-(2-((1R,3S,5R)-3-((6-bromopyridin-2-yl)carbamoyl)-5-methyl-2-azabicyclo[3.1.0]hexan-2-yl)-2-oxoethyl)-1H-indazol-6-yl) phosphonic acid]",< 1
4,"CCOP(=O)(OCC)c1ccc2c(c1)c(C(C)=O)cn2CC(=O)N1C[C@H](F)C[C@H]1C(=O)NCCc1ccccc1 [Compound 78, diethyl (3-acetyl-1-(2-((2S,4R)-4-fluoro-2-(phenethylcarbamoyl)pyrrolidin-1-yl)-2-oxoethyl)-1H-indol-5-yl)phosphonate]",> 10
5,"CC(=O)c1cn(CC(=O)N2C[C@H](F)C[C@H]2C(=O)NCCCCc2ccccc2)c2ccc(P(=O)(O)O)cc12 [Compound 87, (3-acetyl-1-(2-((2S,4R)-4-fluoro-2-((4-phenylbutyl)carbamoyl)pyrrolidin-1-yl)-2-oxoethyl)-1H-indol-5-yl)phosphonic acid]",> 10
6,"CC(=O)c1cn(CC(=O)N2C[C@H](F)C[C@H]2C(=O)NCCCc2ccccc2)c2ccc(P(=O)(O)O)cc12 [Compound 83, (3-acetyl-1-(2-((2S,4R)-4-fluoro-2-((3-phenylpropyl)carbamoyl)pyrrolidin-1-yl)-2-oxoethyl)-1H-indol-5-yl)phosphonic acid]",> 10
7,"CC(=O)c1cn(CC(=O)N2CC[C@H]2C(=O)Nc2cccc(C)n2)c2ccc(P(=O)(O)O)cc12 [Compound 101, (S)-(3-acetyl-1-(2-(2-((6-methylpyridin-2-yl)carbamoyl)azetidin-1-yl)-2-oxoethyl)-1H-indol-5-yl)phosphonic acid]",> 10
8,CCOP(=O)(OCC)c1nc2c(s1)c(C(N)=O)nn2CC(=O)N1C[C@H](F)C[C@H]1C(=O)Nc1cccc(C)n1 [Compound 146],> 10
